In patent US20150366839A1, “Schisantherin A for the treatment of neurodegenerative diseases” (priority 2014, published 2015):
Like-named read-outs stand apart in the source and are kept apart here.

Tests used:
zebrafish larvae = assay type: in vivo; settings: 2.5-10 μM with 250 μM 6-OHDA, 4 days, 10 min session
Protocol: The wild type zebrafish was used for this study.
Zebrafish behaviour was analyzed using a digital video tracking system (Viewpoint ZebraLab system). The system consists of a digital video camera connected to a computer system running the analysis software ZebraLab Man Rev 3.6B.
Moreover, 6-OHDA treatment also markedly altered the swimming behavior of zebrafish. […] Values in FIG. 9 represent the mean±SEM of 12 fish larvae per group of 3-time independent experiments. ###P<0.005 versus control group; *p<0.05, **p<0.01 and *** p<0.005 versus 6-OHDA group. […] The total swimming distance in 10 min travelled by the zebrafish larvae was decreased after exposure to 6-OHDA.

[1] = tested on: TH-positive neurons in the SNpc; assay type: in vivo, C57BL/6 mice; settings: for neuroprotective effect on TH-positive neurons: then MPTP
Protocol: Male C57BL/6 mice (20±2 g body weight, 6-8 weeks of age) were purchased from the Laboratory Animal Center of Guangdong Province and were fed six animals per cage, under a 12 h light/dark cycle with ad libitum access to food and water. Mice were handled daily and allowed 3 days to acclimate before each treatment. Six groups of mice (n=7/group, total 42 mice) were assigned for the neuroprotective study in vivo. SchiA at different concentrations (30, 100 or 300 mg/kg/day), positive control drug (Selegiline, 10 mg/kg/day) or vehicle (Tween-80/ml propylene glycol/alcohol/5% PVA, 1:1:1:17, v/v/v/v) were administered by intragastric gavage (i.g.) daily for 14 days. Then mice were injected by intraperitoneal (i.p.) with 30 mg/kg MPTP hydrochloride (Sigma-Aldrich) or physiological saline daily on days 15-19 (total 5 days). In order to allow for the full conversion of MPTP to its active metabolite MPP^+, a further 3 days of resting period followed (Levites, Weinreb et al. 2001). All animal experiments were conducted according to the ethical guidelines for animal experiment of Jinan University. The experimental protocols were approved by the Ethics Committee for Animal Experiments of Jinan University (permit number 20110810).
Three days after MPTP treatment, animals were anesthetized by i.p. administration of […] chloral hydrate (10% (w/v) dissolved in distilled water) and perfused intracardially with 100 mL PBS (0.1 mmol/L, pH 7.4) followed by 150 mL 4% paraformaldehyde (PFA) in PBS. After intracardial perfusion, brains were collected and post-fixed in 4% PFA for another 24 h at 4° C., embedded in paraffin, and cut into 6 μm coronal sections encompassing the entire SNpc. As the decrease of TH-positive neurons in response to MPTP treatment is the most prominent at medial levels of the SNpc (Hayley, Crocker et al. 2004), the inventors selected the sections from the area encompassed between −3.08 and −3.20 from bregma to perform immunohistochemisty. Immunohistochemistry of brain tissues was performed as previously described (He, Yamauchi et al. 2008; Yokoyama, Takagi et al. 2008) with minor modifications. Sections were deparaffinized in xylene and rehydrated in a graded ethanol series. […] Non-specific protein binding was blocked with 10% bovine serum in PBS (0.01 M, pH 7.4). Between each treatment, the slides were washed at least three times with deionized water for 5 minutes. […] The results were analyzed by counting the numbers of TH-positive cells at ×10 magnifications on a stereomicroscope (BX51, Olympus Corp. Japan). TH-positive cells in 6 position-matched sections of each mouse were counted manually by operator who was blinded to the drug treatment. […]

caspase-3 = test: Caspase-3 activity assay (EnzChek kit); assay type: cell-based, Human; settings: 60 μM 12 h, then 2 mM MPP+ 36 h
Protocol: Caspase-3 activity was detected using the EnzChek® Caspase-3 Assay Kit according to the manufacturer's protocol. In brief, the reaction mixture (total volume 100 μL) contained 50 μL of cell lysate and 50 μL of caspase-3 substrate (Z-DEVD-R110 substrate; the final concentration is […]) in assay buffer, and the assay was carried out in a 96-well plate. To account for non-specific hydrolysis of substrate, the samples were incubated at room temperature for approximately 30 minutes and measured the fluorescence (excitation/emission˜496/520 nm).
The inventors performed Western blot to measure the expression of active-form of caspase-3 and caspase-7 in SH-SY5Y cells. Cells were pretreated with 60 μM SchiA for 12 h and then treated with 2 mM MPP for another 36 h. Cells were lysed and examined by western blot. […] Caspase-3 activity was expressed as units per mg protein. ###p<0.005 versus control group; *p<0.05, **p<0.01 and *** p<0.005 versus MPP+ group.

Q: How did the “6-OHDA-induced reduction of total distance of movement” value (zebrafish larvae) turn out when `COc1cc2c(c(OC)c1OC)-c1c(cc3c(c1OC)OCO3)C[C@H](C)[C@](C)(O)[C@H]2OC(=O)c1ccccc1` [SchiA, Schisantherin A] was run?
A: inhibited 6-OHDA-induced reduction of total distance of movement by zebrafish in a dose dependent manner

Q: What about the “neuroprotective effect on TH-positive neurons” value ([1]; 30 mg/kg) of the same molecule?
A: did not exert statistical significant neuroprotective effect

Q: What about the “neuroprotective effect on TH-positive neurons” value ([1]; 100 mg/kg) of the same molecule?
A: did not exert statistical significant neuroprotective effect

Q: What about the “TH-positive neurons in SNpc” value ([1]; 300 mg/kg/day i.g. 14 days, then MPTP 30 mg/kg i.p. 5 days) of the same molecule?
A: 82±12 cells/section

Q: What about the “MPP+-induced elevation of caspase-3 activity” value (caspase-3) of the same molecule?
A: dramatically suppressed
